From EP2681209B1, “COMPOUNDS AND METHODS FOR THE TREATMENT OF PAIN AND OTHER DISORDERS” (Aquilus Pharmaceuticals, Inc, priority 2011, dated 2012)
Entries after “also recorded” stand apart in the source; their conditions may differ.

Tested on: CD-1 mice
Assay: Naloxone-precipitated morphine withdrawal mouse study, intrathecal administration
Type: in vivo
Conditions: i.t. 10 µl/mouse every 8 hours for 2.5 days with escalating IP morphine; naloxone 1 mg/kg s.c.; compared to control and vehicle
From the text: One can measure the effects of intrathecal (i.t.) or intraparitoneal (i.p.) administration of a matrix metallorproteinase (MMP) inhibitor in a mouse model of morphine analgesia, tolerance and withdrawal. The purpose of which is to measure the effects of a MMP inhibitor on 1) attenuating morphine tolerance in mice and 2) withdrawal behavior in naloxone-precipitated morphine withdrawal in mice. The animal model which was developed in the 1960's and refined in the early 1970's utilizes the opioid antagonist, naloxone to rapidly block the µ-opioid receptor to "precipitate" withdrawal behavior in rodents (Zachariou, V. et al.; Essential role for RGS9 in opiate action, PNAS, 100(23), p 13656-13661, (2003)). […]
Drug Administration & Morphine withdrawal Studies: The matrix metalloproteinase (MMP) inhibitors were dissolved in phosphate buffered saline (PBS) and dimethylsulfoxide (DMSO) and diluted in PBS (final concentration of DMSO for intrathecal administration was 10%). […] Two hours after the last morphine injection, naloxone (1 mg/kg) was administered s.c. Withdrawal behaviors were then monitored for 30 min, 1 hr after the naloxone injection. […]
MMP inhibitor effects on morphine withdrawal For testing the morphine withdrawal-like behavioral signs following intrathecal MMP inhibitor administration, the withdrawal symptoms were monitored for 30 minutes 1-2 h after naloxone administration. […]

## [2H]C([2H])([2H])c1ccc(C#Cc2ccc(S(=O)(=O)N[C@H](Cc3c[nH]c4ccccc34)C(=O)O)s2)cc1 [Compound 10, (R)-3-(1H-Indol-3-yl)-2-[5-(4-trideuteromethyl-phenylethynyl)-thiophene-2-sulfonylamino]-propionic acid-(D3, 98%)]
  morphine withdrawal behavior (behavioral signs, overall opiate withdrawal score): able to reduce overall morphine withdrawal behavior; also recorded: significantly attenuates behavioral signs of naloxone-precipitated morphine withdrawal
